A short description of data set [1]: method code SF-AS, from DOI: 10.1021/jm991080o, PMID: 10579844. Particulars: pH 7.4.
Assay in data set [2]: not given
The source holds these as a separate data set.

Data set [3] can be described thus: method code SF-EIA, from DOI: 10.1016/j.carres.2004.12.038, PMID: 15797137.
Assay in data set [4]: not given
This is another data set of the same source.

Data set [5] in a line: method code SF-AS, from DOI: 10.1016/0223-5234(94)90063-9. The following applies: pH 2.0.
A short description of data set [6]: method code SF, from DOI: 10.1021/jm00114a024, PMID: 1920362.
Data set [7] is described as follows: method code SF-RC, from DOI: 10.1021/jm0607193, PMID: 17004725.
Assay in data set [8]: not given
This is another data set of the same source.

Data set [9] can be described thus: method code SF-AS, from PMID: 19779. Particulars: pH 2.0.
Data set [10] is described as follows: method code SF-HPLC, from DOI: 10.1016/0928-0987(95)00046-1. The following applies: pH 4.0.
The nature of data set [11]: method code SF, from DOI: 10.1021/jm0498699.s001, PMID: 15163209.
Data set [12] is described as follows: method code SF, from DOI: 10.3109/00498258909043190, PMID: 2618089. The following applies: pH 10.8.
A short description of data set [13]: method code SF-AS, from DOI: 10.1002/jps.2600620542, PMID: 4705706.
Assay in data set [14]: not given
The source holds these as a separate data set.

Data set [15] is described as follows: method code SF-HPLC, from DOI: 10.1016/0378-5173(95)00102-o.
Data set [16] is described as follows: method code RP-HPLC, from DOI: 10.1016/0143-7208(91)85018-4. Particulars: pH 7.0.
Data set [17] is described as follows: method code SF-RC, from DOI: 10.1021/jm901850k, PMID: 20411954. The following applies: pH 7.4.
Data set [18] is described as follows: method code SF-AS, from DOI: 10.1002/jps.2600741028, PMID: 4078715.
Assay in data set [19]: not given
This is another data set of the same source.

Data set [20] can be described thus: method code SF-AS, from PMID: 1042. Particulars: pH 7.4.
Data set [21] in a line: method code SF-RC, from DOI: 10.1021/jf60204a016.
A short description of data set [22]: method code SF-AS, from PMID: 578762. The following applies: pH 7.4.
Data set [23] in a line: method code SF-AS, from DOI: 10.1016/0378-5173(88)90083-x. Particulars: pH 7.3.
A short description of data set [24]: method code SF, from DOI: 10.1021/jm00019a019, PMID: 7562920. The following applies: pH 10.0.
For data set [25] the following is noted: pH 9.2.
The nature of data set [26]: method code SF-RC, from DOI: 10.1002/ps.2780240105. Particulars: pH 7.0.
Assay in data set [27]: not given
The source holds these as a separate data set.

The nature of data set [28]: method code SF, from DOI: 10.1021/jm950585l, PMID: 8632436.
Assay in data set [29]: not given
The source holds these as a separate data set.

A short description of data set [30]: method code SF-RC, from DOI: 10.1002/jlcr.1863. The following applies: pH 7.4.
Data set [31] can be described thus: from Afshan, A.; Jehangir, M.; Amin, W.; Mujahid, A. (2000). Study of various esters of ethylcysteine acid dimer as brain perfusion imaging agents and formulation into single vial kit for labelling with …. The following applies: pH 7.5.
Assay in data set [32]: not given
This is another data set of the same source.

Data set [33] can be described thus: method code SF-AS, from PMID: 7849133. Particulars: pH 3.6.
Data set [34] in a line: method code SF-AS, from DOI: 10.1016/0048-3575(87)90152-0.
Assay in data set [35]: not given
This is another data set of the same source.

Data set [36] can be described thus: method code SF-RC, from DOI: 10.1111/j.2042-7158.1987.tb06949.x, PMID: 2882008. Particulars: pH 1.0.
Data set [37] can be described thus: method code SF-HPLC, from DOI: 10.1111/j.1747-0285.2011.01193.x, PMID: 21777394. Particulars: pH 7.4.
Data set [38] can be described thus: method code SF-AS, from PMID: 11446164. Particulars: pH 5.9.
Assay in data set [39]: not given
The source holds these as a separate data set.

A short description of data set [40]: method code SF-AS, from DOI: 10.1002/ardp.19843170314.
A short description of data set [41]: method code SF-RC, from DOI: 10.1021/es00096a007.
Assay in data set [42]: not given
This is another data set of the same source.

Data set [43] is described as follows: method code SF, from DOI: 10.1016/0048-3575(74)90109-6.
A short description of data set [44]: method code SF-HPLC, from DOI: 10.1021/jm030477w, PMID: 15084119. Particulars: pH 7.4.
Data set [45] in a line: method code SF-RC, from PMID: 1811623.
Data set [46] in a line: method code SF-RC, from DOI: 10.1016/s0969-8051(98)00005-5, PMID: 9720665. Particulars: pH 7.0.

The text below walks through data of the SangsterLogP compilation.

A word on the logP: it is a log measure of how a compound divides between an organic and an aqueous phase. What is called logD is lipophilicity at a set pH, counting ionised and neutral species. Higher therefore signals a more lipophilic compound.

For the compound `CC1c2nc3ccccc3c(=O)n2CCN1C` (configuration not stated), the log partition coefficient (logP) came to 0.64.

`CCc1c(O)c(=O)ccn1CCOC(=O)C(C)C` gave a logD in data set [1] of 0.7.

`CCCCCOC(=O)c1ccc(O)cc1` had a log partition coefficient (logP) in data set [2] of 3.65.

In data set [3], `OC[C@H]1O[C@H](O[C@H]2O[C@H](CO)[C@@H](O)[C@H](O)[C@H]2O)[C@H](O)[C@@H](O)[C@@H]1O` returned a lipophilicity (logP) of -3.76.

Consider `CCn1cc(C(=O)O)c(=O)c2cc3nc[nH]c3cc21`, for which, in [4], the log partition coefficient (logP) worked out at 0.41.

Compound `Cn1c(CC(=O)O)cnc1C(=O)c1ccccc1` registered a log distribution coefficient (logD) in [5] of 0.22.

As to `CN(CCN)S(=O)(=O)c1ccc(C(C)(C)[N+](=O)[O-])c([N+](=O)[O-])c1`, the lipophilicity (logP) in data set [6] was 0.62.

Compound `COc1cc(C=CC(=O)C=C(C)O)cc(I)c1O` came in with a logP in data set [7] of 1.35.

`O=C(O)C1(O)c2ccccc2-c2ccc(Cl)cc21` (configuration not stated) gave a log partition coefficient (logP) in data set [8] of 3.22.

Compound `CCC1(c2ccccc2)C(=O)NC(=O)N(C)C1=O` (configuration not stated) gave a logD in data set [9] of 1.84.

In data set [10], `Cc1cnc(NC(=O)C2=C(O)c3ccccc3S(=O)(=O)N2C)s1` had a logD of 2.34.

`COC(=O)CCNC(=O)c1cc(N2CC2)c([N+](=O)[O-])cc1[N+](=O)[O-]` registered a logP in data set [11] of 0.56.

For `O=C(Cn1c(=O)sc2ccc(Cl)cc21)N1CCNCC1`, the logD in data set [12] was determined as 1.35.

On to `COc1ccc(C(=O)c2ccncc2)cc1`, for which the logP in data set [13] is 1.94.

In [14], `Ic1ccc2nc(-c3ccc(-c4nnn[nH]4)cc3)cn2c1` came in with a logP of 1.73.

`CCCCCCOC(=O)c1cccnc1` came in with a log partition coefficient (logP) in data set [15] of 3.51.

Compound `Nc1ccc(N)c2c1C(=O)c1ccccc1C2=O` came in with a logD in [16] of 3.

As to `CON=C1C=C(C#Cc2csc(CF)n2)CCC1`, in data set [17], the logD stood at 1.6.

For the compound `COc1ccc(C=[N+]([O-])c2ccccc2)cc1`, the lipophilicity (logP) in data set [18] was found to be 1.94.

Turning to `c1ccc(CCc2ccccc2)cc1`, the logP in data set [19] turned out to be 4.6.

In data set [20], `CCCCOc1ccc(CC(=O)NO)cc1` came in with a logD of 2.08.

In turn, `CC(C)c1onc2nc(C(C)(C)C)[nH]c(=O)c12` returned a log partition coefficient (logP) in data set [21] of 2.34.

On to `CCOC(=O)/C=C1\SC(N2CCCC2)C(=O)N1C` (configuration not stated), for which the pH-dependent lipophilicity (logD) in data set [22] was found to be 2.

Compound `O=C(c1ccc(Cl)cc1)c1cc(F)ccc1O` registered a pH-dependent lipophilicity (logD) in data set [23] of 4.05.

Take `CNc1ncnc2c1ncn2Cc1ccccc1F`: in [24], the pH-dependent lipophilicity (logD) was found to be 1.86.

For `CC(C)CNCNC(=O)c1ccccc1`, the logD in [25] is 1.73.

Regarding `CCCCc1c(C)nc(NCC)nc1OS(=O)(=O)N(C)C`, the pH-dependent lipophilicity (logD) in data set [26] came to 2.7.

In data set [27], `C(=C\c1ccccc1)/c1ccccc1` had a log partition coefficient (logP) of 4.59.

Turning to `Cc1cc2c(ccc3c(C)cc(=O)[nH]c32)o1`, the logP in data set [28] worked out at 2.21.

As to `CCC(N)C(=O)Nc1c(C)cccc1C` (configuration not stated), the logP in data set [29] was found to be 0.84.

Compound `O=c1[nH]c(=O)n(C2CC(O)C(CO)O2)cc1-c1cn(CCF)nn1` (configuration not stated) came in with a log distribution coefficient (logD) in [30] of -1.33.

Take `CCOC(=O)[C@H](CS)NCCN[C@@H](CS)C(=O)OCC`: the logD in data set [31] came out at 1.4.

As to `OC(Cn1cncn1)(Cn1cncn1)c1ccc(Cl)cc1Cl`, the logP in [32] was 1.1.

Regarding `O=C(O)c1cccnc1Nc1cccc(C(F)(F)F)c1`, the logD in data set [33] was found to be 2.95.

`CCC(C(=O)Oc1ccccc1)C(C)C` (configuration not stated) gave a logP in data set [34] of 4.2.

`Cc1cc(NC(=O)C2=C(O)c3ccccc3S(=O)(=O)N2C)no1` returned a logP in data set [35] of 2.83.

As to `Cc1c(Cl)cccc1Nc1ccccc1C(=O)O`, the logD in data set [36] came out at 4.18.

The compound `C[C@@H](OC(=O)N(N(CCCl)S(C)(=O)=O)S(C)(=O)=O)c1ccc([N+](=O)[O-])cc1` registered a log distribution coefficient (logD) in data set [37] of 2.15.

For `O=C1N=C(N2CCOCC2)CN1c1ccc(Cl)cc1`, the pH-dependent lipophilicity (logD) in data set [38] was found to be 1.32.

`CCC(O)(CCC(N)=O)c1ccccc1` (configuration not stated) had a logP in data set [39] of 2.11.

As to `O=C(O)Cc1ccccc1Oc1ccc(Cl)cc1Cl`, the logP in data set [40] came out at 4.8.

As to `Nc1ccc2cc3ccccc3cc2c1`, the log partition coefficient (logP) in [41] turned out to be 4.13.

As for `CCN(CC)CCOC(=O)c1ccc(N)cc1`, the lipophilicity (logP) in [42] came out at 2.1.

In [43], `Fc1ccc(C(c2ccc(F)cc2)C(Cl)(Cl)Cl)cc1` gave a logP of 4.62.

For `Nc1ccc(-c2cn3cc(I)ccc3n2)cc1`, the logD in data set [44] was determined as 3.58.

`Cc1c(C)c2ccc3occc3c2oc1=O` came in with a lipophilicity (logP) in [45] of 2.9.

`OC1OC2COC(c3ccc(I)cc3)OC2C(O)C1O` (configuration not stated): the logD in [46] worked out at 1.9.
